Reference: patent US20240358818A1, “ANTIBODY-INDUCING POLYPEPTIDE AND VACCINE” (priority 2021, published 2024)

How the values were obtained:
[1] = target: L452R mutant RBD epitope antigen (Severe acute respiratory syndrome coronavirus 2, UniProt P0DTC2, L452R)
[2] = target: T478K mutant RBD epitope antigen (Severe acute respiratory syndrome coronavirus 2, UniProt P0DTC2, T478K)

Sequence | reactivity to a homologous epitope of the mutant RBD compared with the wild-type RBD [1] | reactivity of mouse serum to the mutant RBD [2] | reactivity to the mutant RBD compared with reactivity to the wild-type RBD [2]
GGNYNYLYRLFRKSNLKPFERD [#10] | substantially equivalent | – | –
SNLKPFERDISTEIYQAGSTPC [#11] | – | sufficiently high reactivity | a little lower
